Experiment [1] relates to hepatitis C. Nature of the experiment: Example 12: patient N., hepatitis C, hepatargy and ascites, symptoms and blood counts. The conditions noted are these: after 2 weeks (250 mg twice a day). In kind it is in vivo, human.
For experiment [2], the system named is adenocarcinoma of the prostate gland. Nature of the experiment: Example 9: patient K., adenocarcinoma of the prostate gland, ultrasound, PSA and blood counts. In kind it is in vivo, human. Also on record: prostate had become smaller by (ultrasound): dose or concentration left out as unconfirmed.
Description: An ultrasound test on 8 Aug. […] A PSA test on 8 Aug.
The patient declined an operation and chemotherapy. The patient was treated with the drug. On 9 Aug. […] The treatment lasted 10 days.
For experiment [3], the target named is T1, Transthyretin (protein) of the blood plasma (Homo sapiens, UniProt P02766).
T1 construct: Transthyretin (protein) of the blood plasma; from tissue; host or cells: blood plasma
Nature of the experiment: Example 3: Transthyretin of the blood plasma in test tube. The experiment is classed as biochemical. As to the method: Into a test tube (10 ml) with Transthyretin (protein) of the blood plasma (pH=7.0) in a concentration of 0.05 mmol/ml, four drops of 0.1% MCPA aqueous solution were introduced. The test tube was thermostatically controlled at a temperature of 37° C. After 15 minutes, the concentration of Transthyretin and the pH value of the blood plasma were measured. Transthyretin was not found, and the pH value was 6.0.

Experiment [4] deals with melanoma-16. Kind of experiment: Example 8: mice inoculated with melanoma-16. The experiment is classed as in vivo. As to conditions: for surviving mice in which no blastomas were ascertained / surviving mice with blastomas of approximately 0.3×0.2 mm: 36th day, 5 mg as a drink; for mice with isolated pulmonal metastases at dissection: surviving mice killed on the 36th day.

Experiment [5] concerns cancer cells PC-3 (prostate carcinoma). Kind of experiment: Example 1: mitochondrial membranes of cancer cells PC-3 in test tubes. The experiment is classed as cell-based. The conditions noted are these: PC-3, dilution 10^−5 mmol/l, 24 hours at 37° C.
Description: After thermostatically controlling the aforementioned test tubes in the course of 24 hours at a temperature of 37° C., the contents were analyzed.
Experiment [6] has as its system filtrate formed from melanoma 16. Nature of the experiment: Example 6: filtrate from melanoma 16 in the polarisation microscope. The conditions noted are these: filtrate with the preparation; without it the light polarization is slight. The protocol: A filtrate formed from melanoma 16 (10 ml) was accommodated in a quartz vessel and detected in the polarisation microscope. Thereafter, sodium salt (O.F.1) was introduced into the filtrate, and a repeat detection was carried out in the polarisation microscope.

Experiment [7] deals with T2, β-amyloid (protein) of the blood plasma (Homo sapiens, UniProt P05067).
T2 construct: Into a test tube with β-amyloid (protein) of the blood plasma (pH=7.4); from tissue; host or cells: blood plasma
Kind of experiment: Example 4: β-amyloid of the blood plasma in test tube. The experiment is classed as biochemical. The protocol:
Into a test tube with β-amyloid (protein) of the blood plasma (pH=7.4) with a concentration of 0.1 mmol/ml, three drops of 0.1% sodium salt aqueous solution (called O.F.1) are introduced. The test tube was thermostatically controlled at a temperature of 37° C. After 15 minutes, the protein concentration and the pH value of the blood plasma were measured. The protein concentration amounted to 0.03 mmol/ml, and the pH value amounted to 7.2.

In experiment [8] the test system is plasma of the blood of a sarcoma patient. Nature of the experiment: Example 5: plasma of a sarcoma patient in the polarisation microscope. As to conditions: plasma with aqueous solution of the salt; dried plasma without it: light diffusion. As to the method:
The blood of a sarcoma patient (10 ml) was centrifuged. A proportion of plasma was dried and detected in the polarisation microscope. Into the remaining proportion of plasma, an aqueous solution of lithium salt of MCPA acid was introduced, and the mixture was also detected in the polarization microscope.

Each structure is given as a SMILES string.

T2 sequence (P05067 672-711 limits assumed): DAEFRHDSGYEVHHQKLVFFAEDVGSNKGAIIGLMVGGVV

On to `Cc1cc(Cl)ccc1OCC(=O)O` [4-chlorine-2-methyl phenoxyacetic acid], for which, in experiment [1] (before treatment 2.0), the Albumin was 4.7 g/dL. This compound came in with a Bilirubin in experiment [1] (before treatment 2.9) of 1.7 mg/dL. In experiment [1] (before treatment 73.0), this compound registered an Aspart aminotransferasis of 51.0 units/l. The compound also returned an Alanine aminotransferasis in experiment [1] (before treatment 77.0) of 71.4 units/l. Also, in experiment [1] (before treatment 129.0), the Gammaglutamyl transferasis was determined as 82.0 units/l. Moreover, the Lactate dehydrogenasis in experiment [1] (before treatment 543.5) amounted to 335.0 units/l. Further, the pains during urination entry in experiment [2] (10 days of treatment) was “became less”. The “prostate had become smaller by (ultrasound)” value in experiment [2] (10 days, before approximately 90 cm^3) stood at 30%. Moreover, in experiment [3] (after 15 minutes at 37° C., initial pH=7.0), the “pH value of the blood plasma” value is recorded as 6.0. The “concentration of Transthyretin” value in experiment [3] (four drops of 0.1% aqueous solution, 37° C., after 15 minutes, initial 0.05 mmol/ml) was “not found”. Also, in experiment [4], the “surviving mice in which no blastomas were ascertained” value is recorded as 3 mice, the “surviving mice with blastomas of approximately 0.3×0.2 mm” value stood at 3 mice and the “mice with isolated pulmonal metastases at dissection” value is 2 mice. Further, in experiment [4] (single dose of 5 mg as a drink), the “mice died on the 23rd day” value was 2 mice.

On to `COc1cccc2c1C(=O)c1c(O)c3c(c(O)c1C2=O)C[C@@](O)(C(=O)CO)C[C@@H]3O[C@H]1C[C@H](N)[C@H](O)[C@H](C)O1` [Adriamycin, reference compound], for which, in experiment [5], the “mitochondrial membranes of cancer cells (appearance)” value is “membrane swelling”. For the same compound, in experiment [4] (single dose of 5 mg as a drink), the “mice alive on the 36th day of the test” value was determined as 2 mice.

For `Cc1cc(Cl)ccc1OCC(=O)[O-].[Na+]` [O.F.1], the “observation in the polarisation microscope” value in experiment [6] was “pronounced polarization”. Also, in experiment [4], the “surviving mice in which no blastomas were ascertained” value was “one”, the “surviving mice with blastomas of approximately 0.3×0.2 mm” value amounted to 8 mice and the “mice with isolated pulmonal metastases at dissection” value was 4 mice. For the same compound, in experiment [4] (single dose of 5 mg as a drink), the “mice died on the 23rd day” value is reported as “one”, the “mice died on the 26th day” value is reported as “one” and the “mice died on the 30th day” value is reported as 1 mice. The “pH value of the blood plasma” value in experiment [7] (after 15 minutes at 37° C., initial pH=7.4) is 7.2. The “protein (β-amyloid) concentration” value in experiment [7] (three drops of 0.1% aqueous solution, 37° C., after 15 minutes, initial 0.1 mmol/ml) is 0.03 mmol/mL.

For `Cc1cc(Cl)ccc1OCC(=O)[O-].[Li+]` [lithium salt of MCPA acid], in experiment [8], the “observation in the polarisation microscope” value was “double refraction of rays”.

These data come from US20090221708A1, “Medicinal preparation” (priority 2004, published 2009).
